In brackets after ≈: the same amount, converted by molar mass.
Tests used:
[1] = Metabolic stability in rat hepatocytes (rHep); conditions: n = 1 or geometric mean of n = 2-3
[2] = molecular target: Prolyl endopeptidase, Prolyl Oligopeptidase (hPREP) (Homo sapiens (Human), UniProt P48147); experiment: hPrep inhibition assay; type: biochemical; conditions: hPREP 0.6 nM, Z-Gly-Pro-amino-methylcoumarin 50 μM; read-out: PREP IC50
Outline: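 Recombinant human PREP at 0.6 nM final with Z-Gly-Pro-AMC substrate at 50 μM final in Tris-HCl pH 7.5, NaCl, Triton X-100, glutathione; 15 min rt preincubation then 20 min rt reaction in dark. AMC fluorescence (ex 340/em 460 nm); IC50 from one-site dose-response fit of % inhibition.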

[3] = molecular target: human Fibroblast activation protein alpha (hFAP) (Homo sapiens (Human), UniProt Q12884); experiment: hFAP inhibition assay (tight binders); type: biochemical; conditions: Ala-Pro-AMC 20 μM, n = 1 or geometric mean n = 2-6; further: hFAP 2.4 pM
Description: The plates were read on a PHERAstar® reader with excitation 340 nm and emission 460 nm. Data were analyzed in Genedata Screener®. IC50 values were determined by plotting % inhibition versus log compound concentration and using a one site dose response model.

FAP = FAP (Homo sapiens (Human), UniProt Q12884); experiment: hFAP inhibition assay; type: biochemical; conditions: Ala-Pro-AMC 20 μM, n = 1 or geometric mean n = 2-3
Description: 384 low volume black plates (Greiner #784076) were used. 4 μL, 0.48 nM enzyme solution (100 mM Tris HCl, 100 mM NaCl, 0.05% Chaps, pH 7.4) was added to 40 nL compounds (in DMSO) at 10 CR, 3 fold dilution series from 50 μM FAC. Plates were incubated for 15 min at rt in dark. 4 μL, 40 μM substrate solution (100 mM Tris HCl, 100 mM NaCl, 0.05% Chaps, pH 7.4) was added to each well. Plates were centrifuged at 1000 rpm and incubated for 30 min at rt in dark. The plates were read on a PHERAstar® reader with excitation 340 nm and emission 460 nm. Data were analyzed in Genedata Screener®. IC50 values were determined by plotting % inhibition versus log compound concentration and using a one site dose response model.

[4] = Metabolic stability in human liver microsomes (HLM); conditions: human
Description: Metabolic stability in HLM was measured as described in J Comput Aided Mol Des 2015, 29, 795.

Kinetic solubility = conditions: kinetic from dmso stock
Description: Kinetic solubility was measured as described in Comput Aided Mol Des 2015, 29, 795.

hFAP (M39-A757) = hFAP (M39-A757) (Homo sapiens (Human), UniProt Q12884); experiment: hFAP binding assay (surface plasmon resonance); conditions: SPR, 20° C.; for hFAP Binding assay k(off) / hFAP Binding assay k(on): single cycle kinetics; for Kd: n = 1 or geometric mean n = 2-4
[5] = HLM CLint, n = 1 or average of n = 2-3
[6] = Solubility, kinetic solubility, n = 1 or average of n = 2-3

Sequence of FAP (Q12884 38-760): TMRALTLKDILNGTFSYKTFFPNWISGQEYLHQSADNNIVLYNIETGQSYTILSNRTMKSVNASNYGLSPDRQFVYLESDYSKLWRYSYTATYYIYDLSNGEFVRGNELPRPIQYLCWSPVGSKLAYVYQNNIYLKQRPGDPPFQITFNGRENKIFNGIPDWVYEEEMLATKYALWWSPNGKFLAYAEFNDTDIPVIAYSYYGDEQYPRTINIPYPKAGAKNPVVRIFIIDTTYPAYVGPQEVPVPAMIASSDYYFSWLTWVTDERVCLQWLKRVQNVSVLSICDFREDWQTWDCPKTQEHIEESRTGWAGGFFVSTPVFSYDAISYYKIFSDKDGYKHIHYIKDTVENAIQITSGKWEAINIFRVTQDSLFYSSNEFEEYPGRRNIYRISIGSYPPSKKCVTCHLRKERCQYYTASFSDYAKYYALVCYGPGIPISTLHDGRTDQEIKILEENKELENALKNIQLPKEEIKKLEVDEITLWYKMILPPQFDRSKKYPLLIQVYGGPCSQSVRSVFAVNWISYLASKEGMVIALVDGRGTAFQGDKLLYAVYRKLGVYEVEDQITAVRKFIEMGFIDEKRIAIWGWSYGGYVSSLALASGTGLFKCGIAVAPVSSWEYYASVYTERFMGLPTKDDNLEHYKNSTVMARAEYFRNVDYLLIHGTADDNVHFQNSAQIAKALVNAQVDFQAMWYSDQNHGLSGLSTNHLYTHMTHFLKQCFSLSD
Sequence of human Fibroblast activation protein alpha (hFAP) (Q12884 38-760): as above
Sequence of Prolyl endopeptidase, Prolyl Oligopeptidase (hPREP) (P48147 whole entry): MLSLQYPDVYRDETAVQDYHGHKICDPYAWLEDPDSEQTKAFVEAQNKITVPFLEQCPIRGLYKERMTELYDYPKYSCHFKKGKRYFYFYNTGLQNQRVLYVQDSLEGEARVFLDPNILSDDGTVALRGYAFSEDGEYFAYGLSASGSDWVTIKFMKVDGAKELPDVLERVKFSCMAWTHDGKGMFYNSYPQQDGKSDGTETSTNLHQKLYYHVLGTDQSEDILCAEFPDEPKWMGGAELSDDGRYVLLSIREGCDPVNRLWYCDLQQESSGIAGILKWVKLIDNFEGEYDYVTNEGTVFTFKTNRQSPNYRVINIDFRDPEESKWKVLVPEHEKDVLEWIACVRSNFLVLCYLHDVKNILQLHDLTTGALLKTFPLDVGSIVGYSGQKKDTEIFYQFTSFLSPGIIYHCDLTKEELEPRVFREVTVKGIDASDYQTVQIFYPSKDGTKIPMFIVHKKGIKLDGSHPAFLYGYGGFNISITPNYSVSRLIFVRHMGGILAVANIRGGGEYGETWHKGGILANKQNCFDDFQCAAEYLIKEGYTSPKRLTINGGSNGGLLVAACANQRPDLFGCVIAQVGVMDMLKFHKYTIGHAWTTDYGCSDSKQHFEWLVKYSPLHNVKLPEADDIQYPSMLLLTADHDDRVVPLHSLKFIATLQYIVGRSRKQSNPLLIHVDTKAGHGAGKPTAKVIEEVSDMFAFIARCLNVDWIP
Sequence of hFAP (M39-A757) (Q12884 39-757): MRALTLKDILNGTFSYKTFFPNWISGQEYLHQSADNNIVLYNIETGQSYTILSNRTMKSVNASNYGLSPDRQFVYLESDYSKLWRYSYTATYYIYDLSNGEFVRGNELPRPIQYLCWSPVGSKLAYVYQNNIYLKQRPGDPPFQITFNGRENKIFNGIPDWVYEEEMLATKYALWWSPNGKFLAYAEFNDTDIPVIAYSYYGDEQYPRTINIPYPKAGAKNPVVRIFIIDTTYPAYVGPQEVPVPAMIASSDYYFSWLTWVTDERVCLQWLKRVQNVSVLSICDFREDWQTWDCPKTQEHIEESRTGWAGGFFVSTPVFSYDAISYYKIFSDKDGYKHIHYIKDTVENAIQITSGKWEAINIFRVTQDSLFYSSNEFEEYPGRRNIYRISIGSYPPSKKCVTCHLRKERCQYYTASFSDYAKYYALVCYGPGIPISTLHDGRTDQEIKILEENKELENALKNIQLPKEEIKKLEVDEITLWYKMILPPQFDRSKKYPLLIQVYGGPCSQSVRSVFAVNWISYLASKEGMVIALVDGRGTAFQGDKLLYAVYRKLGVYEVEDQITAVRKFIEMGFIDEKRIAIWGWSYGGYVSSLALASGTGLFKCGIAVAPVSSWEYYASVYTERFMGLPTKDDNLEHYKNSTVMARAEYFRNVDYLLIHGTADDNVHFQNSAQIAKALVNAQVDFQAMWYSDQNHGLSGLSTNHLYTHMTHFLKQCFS

C[C@@H]1COC[C@@H](C)N1c1ccc2nccc(C(=O)NCC(=O)N3CSC[C@H]3C#N)c2c1 [Example 105, N-(2-((R)-4-Cyanothiazolidin-3-yl)-2-oxoethyl)-6-((3R,5R)-3,5-dimethyl-morpholino)quinoline-4-carboxamide]
rHep CLint [1]: 18 μL/min/1E6 | IC50 [2]: 590 nM | IC50 [3]: 0.088 nM | IC50 (FAP; hFAP […]): 0.37 nM | microsomal CLint [4, 5]: 180 µL/min/mg | solubility (Kinetic solubility; [6]): > 1000 µM | hFAP Binding assay k(off) (hFAP (M39-A757)): 0.000068 s⁻¹ | hFAP Binding assay k(on) (hFAP (M39-A757)): 890000 M⁻¹ s⁻¹ | Kd (hFAP (M39-A757)): 0.082 nM

N#C[C@@H]1CSCN1C(=O)CNC(=O)c1ccnc2ccc(N3CC[C@H](F)C3)cc12 [Example 51, N-(2-((R)-4-Cyanothiazolidin-3-yl)-2-oxoethyl)-6-((S)-3-fluoropyrrolidin-1-yl)quinoline-4-carboxamide]
rHep CLint [1]: 24 μL/min/1E6 | IC50 [2]: 130 nM | IC50 [3]: 0.064 nM | IC50 (FAP; hFAP […]): 0.21 nM | microsomal CLint [4, 5]: 14 µL/min/mg | solubility (Kinetic solubility; [6]): 56 µM (≈ 23.2 µg/mL) | hFAP Binding assay k(off) (hFAP (M39-A757)): 0.00011 s⁻¹ | hFAP Binding assay k(on) (hFAP (M39-A757)): 5600000 M⁻¹ s⁻¹ | Kd (hFAP (M39-A757)): 0.021 nM

C[C@H]1CCN(c2ccc3nccc(C(=O)NCC(=O)N4CSC[C@H]4C#N)c3c2)CCO1 [Example 62, N-(2-((R)-4-Cyanothiazolidin-3-yl)-2-oxoethyl)-6-((S)-7-methyl-1,4-oxazepan-4-yl)quinoline-4-carboxamide]
rHep CLint [1]: 46 μL/min/1E6 | IC50 [2]: 280 nM | IC50 [3]: 0.058 nM | IC50 (FAP; hFAP […]): 0.25 nM | microsomal CLint [4, 5]: 31 µL/min/mg | solubility (Kinetic solubility; [6]): 640 µM (≈ 281 µg/mL) | hFAP Binding assay k(off) (hFAP (M39-A757)): 0.000085 s⁻¹ | hFAP Binding assay k(on) (hFAP (M39-A757)): 710000 M⁻¹ s⁻¹ | Kd (hFAP (M39-A757)): 0.12 nM

COC[C@@H]1CCCN1c1ccc2nccc(C(=O)NCC(=O)N3CSC[C@H]3C#N)c2c1 [Example 212, N-(2-((R)-4-Cyanothiazolidin-3-yl)-2-oxoethyl)-6-((S)-2-(methoxymethyl)-pyrrolidin-1-yl)quinoline-4-carboxamide]
rHep CLint [1]: 57 μL/min/1E6 | IC50 [2]: 330 nM | IC50 [3]: 0.26 nM | IC50 (FAP; hFAP […]): 0.29 nM | microsomal CLint [4, 5]: 110 µL/min/mg | solubility (Kinetic solubility; [6]): 16 µM (≈ 7.03 µg/mL) | hFAP Binding assay k(off) (hFAP (M39-A757)): 0.00034 s⁻¹ | hFAP Binding assay k(on) (hFAP (M39-A757)): 3300000 M⁻¹ s⁻¹ | Kd (hFAP (M39-A757)): 0.1 nM

N#C[C@@H]1CSCN1C(=O)CNC(=O)c1ccnc2ccc(-c3ccnn3[C@H]3CCCCO3)cc12 (mixture of isomers) [Example 176, N-(2-((R)-4-Cyanothiazolidin-3-yl)-2-oxoethyl)-6-(1-((RS)-tetrahydro-2H-pyran-2-yl)-1H-pyrazol-5-yl)quinoline-4-carboxamide]
rHep CLint [1]: 15 μL/min/1E6 | IC50 [2]: 560 nM | IC50 [3]: 0.087 nM | IC50 (FAP; hFAP 0.24 nM): 0.54 nM | microsomal CLint [4, 5]: 92 µL/min/mg | solubility (Kinetic solubility; [6]): 800 µM | hFAP Binding assay k(off) (hFAP (M39-A757)): 0.00022 s⁻¹ | hFAP Binding assay k(on) (hFAP (M39-A757)): 120000 M⁻¹ s⁻¹ | Kd (hFAP (M39-A757)): 1.9 nM

N#C[C@@H]1CSCN1C(=O)CNC(=O)c1ccnc2ccc(N3CC(C(F)(F)F)C3)cc12 [Example 26, (R)—N-(2-(4-Cyanothiazolidin-3-yl)-2-oxoethyl)-6-(3-(trifluoromethyl)-azetidin-1-yl)quinoline-4-carboxamide]
rHep CLint [1]: 7.6 μL/min/1E6 | IC50 [2]: 580 nM | IC50 [3]: 0.1 nM | IC50 (FAP; hFAP […]): 0.31 nM | microsomal CLint [4, 5]: 31 µL/min/mg | solubility (Kinetic solubility; [6]): 15 µM (≈ 6.74 µg/mL) | hFAP Binding assay k(off) (hFAP (M39-A757)): 0.000065 s⁻¹ | hFAP Binding assay k(on) (hFAP (M39-A757)): 1300000 M⁻¹ s⁻¹ | Kd (hFAP (M39-A757)): 0.056 nM

N#C[C@@H]1CSCN1C(=O)CNC(=O)c1ccnc2ccc(N3CCCC[C@@H](F)C3)cc12 [Example 59, N-(2-((R)-4-Cyanothiazolidin-3-yl)-2-oxoethyl)-6-((R)-3-fluoroazepan-1-yl)quinoline-4-carboxamide]
rHep CLint [1]: 91 μL/min/1E6 | IC50 [2]: 30 nM | IC50 [3]: 0.061 nM | IC50 (FAP; hFAP […]): 0.27 nM | microsomal CLint [4, 5]: > 300 µL/min/mg | solubility (Kinetic solubility; [6]): 40 µM (≈ 17.7 µg/mL) | hFAP Binding assay k(off) (hFAP (M39-A757)): 0.00019 s⁻¹ | hFAP Binding assay k(on) (hFAP (M39-A757)): 2600000 M⁻¹ s⁻¹ | Kd (hFAP (M39-A757)): 0.087 nM

CC1(C)CCN1c1ccc2nccc(C(=O)NCC(=O)N3CSC[C@H]3C#N)c2c1 [Example 20, (R)—N-(2-(4-Cyanothiazolidin-3-yl)-2-oxoethyl)-6-(2,2-dimethylazetidin-1-yl)quinoline-4-carboxamide]
rHep CLint [1]: 120 μL/min/1E6 | IC50 [2]: 430 nM | IC50 [3]: 0.43 nM | IC50 (FAP; hFAP […]): 0.74 nM | microsomal CLint [4, 5]: 290 µL/min/mg | solubility (Kinetic solubility; [6]): 900 µM (≈ 369 µg/mL) | hFAP Binding assay k(off) (hFAP (M39-A757)): 0.00012 s⁻¹ | hFAP Binding assay k(on) (hFAP (M39-A757)): 4200000 M⁻¹ s⁻¹ | Kd (hFAP (M39-A757)): 0.03 nM

N#C[C@@H]1CSCN1C(=O)CNC(=O)c1ccnc2ccc(N3C[C@@H]4[C@H](C3)[C@H]4C(F)(F)F)cc12 [Example 208, N-(2-((R)-4-Cyanothiazolidin-3-yl)-2-oxoethyl)-6-((1R,5S,6R)-6-(trifluoromethyl)-3-azabicyclo[3.1.0]hexan-3-yl)quinoline-4-carboxamide]
rHep CLint [1]: 12 μL/min/1E6 | IC50 [2]: 210 nM | IC50 [3]: 0.11 nM | IC50 (FAP; hFAP […]): 0.22 nM | microsomal CLint [4, 5]: 72 µL/min/mg | solubility (Kinetic solubility; [6]): 1.6 µM (≈ 0.761 µg/mL) | hFAP Binding assay k(off) (hFAP (M39-A757)): 0.00026 s⁻¹ | hFAP Binding assay k(on) (hFAP (M39-A757)): 5600000 M⁻¹ s⁻¹ | Kd (hFAP (M39-A757)): 0.046 nM

N#C[C@@H]1CSCN1C(=O)CNC(=O)c1ccnc2ccc(N3C[C@@H]4CC[C@H]3C4)cc12 (mixture of isomers) [Example 210, 6-((1RS,4SR)-2-Azabicyclo[2.2.1]heptan-2-yl)-N-(2-((R)-4-cyanothiazolidin-3-yl)-2-oxoethyl)quinoline-4-carboxamide]
rHep CLint [1]: 250 μL/min/1E6 | IC50 [2]: 220 nM | IC50 [3]: 0.18 nM | IC50 (FAP; hFAP 0.24 nM): 0.44 nM | microsomal CLint [4, 5]: 220 µL/min/mg | solubility (Kinetic solubility; [6]): 150 µM | hFAP Binding assay k(off) (hFAP (M39-A757)): 0.000098 s⁻¹ | hFAP Binding assay k(on) (hFAP (M39-A757)): 3800000 M⁻¹ s⁻¹ | Kd (hFAP (M39-A757)): 0.026 nM

N#C[C@@H]1CSCN1C(=O)CNC(=O)c1ccnc2ccc(N3CC4(CCC4)C3)cc12 [Example 17, (R)—N-(2-(4-Cyanothiazolidin-3-yl)-2-oxoethyl)-6-(2-azaspiro[3.3]heptan-2-yl)quinoline-4-carboxamide]
rHep CLint [1]: 16 μL/min/1E6 | IC50 [2]: 160 nM | IC50 [3]: 0.085 nM | IC50 (FAP; hFAP […]): 0.22 nM | microsomal CLint [4]: 18 µL/min/mg | solubility (Kinetic solubility): 250 µM (≈ 105 µg/mL) | hFAP Binding assay k(off) (hFAP (M39-A757)): 0.00012 s⁻¹ | hFAP Binding assay k(on) (hFAP (M39-A757)): 8300000 M⁻¹ s⁻¹ | Kd (hFAP (M39-A757)): 0.015 nM

N#C[C@@H]1CSCN1C(=O)CNC(=O)c1ccnc2ccc(N3CCC34CCC4)cc12 [Example 19, (R)—N-(2-(4-Cyanothiazolidin-3-yl)-2-oxoethyl)-6-(1-azaspiro[3.3]heptan-1-yl)quinoline-4-carboxamide]
rHep CLint [1]: 63 μL/min/1E6 | IC50 [2]: 160 nM | IC50 [3]: 0.38 nM | IC50 (FAP; hFAP […]): 0.66 nM | microsomal CLint [4]: 190 µL/min/mg | solubility (Kinetic solubility): 480 µM (≈ 202 µg/mL) | hFAP Binding assay k(off) (hFAP (M39-A757)): 0.000066 s⁻¹ | hFAP Binding assay k(on) (hFAP (M39-A757)): 430000 M⁻¹ s⁻¹ | Kd (hFAP (M39-A757)): 0.15 nM

CC[C@H]1COCCN1c1ccc2nccc(C(=O)NCC(=O)N3CSC[C@H]3C#N)c2c1 [Example 106, N-(2-((R)-4-Cyanothiazolidin-3-yl)-2-oxoethyl)-6-((S)-3-ethyl-morpholino)quinoline-4-carboxamide]
rHep CLint [1]: 21 μL/min/1E6 | IC50 [2]: 520 nM | IC50 [3]: 0.08 nM | IC50 (FAP; hFAP […]): 0.23 nM | microsomal CLint [4, 5]: 47 µL/min/mg | solubility (Kinetic solubility; [6]): 700 µM (≈ 308 µg/mL) | hFAP Binding assay k(off) (hFAP (M39-A757)): 0.00014 s⁻¹ | hFAP Binding assay k(on) (hFAP (M39-A757)): 1800000 M⁻¹ s⁻¹ | Kd (hFAP (M39-A757)): 0.075 nM

N#C[C@@H]1CSCN1C(=O)CNC(=O)c1ccnc2ccc(-c3ccc(F)cn3)cc12 [Example 125, (R)—N-(2-(4-Cyanothiazolidin-3-yl)-2-oxoethyl)-6-(5-fluoropyridin-2-yl)quinoline-4-carboxamide]
rHep CLint [1]: 7.4 μL/min/1E6 | IC50 [2]: 120 nM | IC50 [3]: 0.046 nM | IC50 (FAP; hFAP […]): 0.21 nM | microsomal CLint [4, 5]: 14 µL/min/mg | solubility (Kinetic solubility; [6]): 38 µM (≈ 16 µg/mL) | hFAP Binding assay k(off) (hFAP (M39-A757)): 0.00014 s⁻¹ | hFAP Binding assay k(on) (hFAP (M39-A757)): 3000000 M⁻¹ s⁻¹ | Kd (hFAP (M39-A757)): 0.048 nM
